Test results: US20260306377A1, “ANTIMICROBIAL COMPOSITIONS CONTAINING A CATIONIC ANTIMICROBIAL AND AN ACIDIC GLYCOLOPID” (LANXESS CORPORATION, priority 2023, published 2026)

Tested on: mixed bacterial inoculum and mixed fungal inoculum
Test: challenge test, overall result (bacteria and fungi)
Assay type: cell-based
Settings: anionic xanthan gum lotion dosed with the substance(s)
Experimental: Preservative activity in representative formulations was evaluated by using a modification of the Personal Care Products Council (PCPC) protocol (Machtiger, et al. 2001. Determination of the Efficacy of Preservation of Non-Eye Area Water Miscible Cosmetic and Toiletry Formulations: Collaborative Study. J of AOAC International. 84:1, 101-109). The evaluation was conducted using a four week, two-cycle microbial preservative efficacy test (challenge test) at 25° C. to determine the preservative efficacy of each treatment.
Xanthan gum is commonly used as a natural rheological modifier in personal care products. The formulation below was made by heating the aqueous (A) and oil (B) phases separately to 75-80° C. The oil phase was then poured into the aqueous phase and mixed by an overhead mixer and a homogenizer. The oil-in-water emulsion was cooled to room temperature. Sodium hydroxide solution was used to adjust the pH.
Lotion formulation samples were dosed with certain test materials as shown further below and mixed thoroughly at room temperature, and the formulation samples were divided into two separate aliquots of 5 gram each. One aliquot was inoculated with 50 μl of a diluted bacterial pool, the second aliquot was inoculated with 50 μl of a diluted fungal pool as described below. Unpreserved product samples were included in the test as a growth control.
A mixed bacterial inoculum was prepared using 24-hour cultures of the test bacteria (Table 2) grown in trypticase soy broth (TSB). Equal volumes of the bacterial test strains were combined and diluted one to ten in phosphate buffer to obtain an inoculum of approximately 5×10^7 to 5×10^8 colony forming units per ml (cfu/ml). The test samples were inoculated with 1% of the mixed bacterial inoculum. A mixed fungal inoculum was prepared using cell suspensions of the yeast Candida albicans ATCC #10231 and the mold Aspergillus brasiliensis ATCC #16404 in phosphate buffer. Equal volumes of the fungal test strains were combined and diluted one to ten with phosphate buffer to obtain an inoculum of approximately 5×10^6 to 5×10^7 cfu/ml. The test samples were inoculated with […] of the mixed fungal inoculum.
The samples were subjected to microbial challenge at time zero and inoculated a second time after seven days. The number of microorganisms added to each sample was determined by a standard Most Probable Number (MPN) determination in Trypticase Soy Broth (TSB) for bacteria and Potato Dextrose Broth (PDB) for fungi. Samples were incubated at 25° C. for the test duration of four weeks. Samples were monitored for bacterial and fungal contamination after 2, 7, 14, 21, and 28 days. Samples challenged with bacteria were streak-plated onto Trypticase Soy Agar (TSA) and incubated at 30° C. for 24 hours. Samples challenged with fungi were streak-plated onto Potato Dextrose Agar (PDA) and incubated at 25° C. for 7 days. After incubation, plates were given a Growth Rating to determine the colony forming units per gram (CFU/g) present in each test sample at the testing time point. As is used by various challenge test methods, the passing criteria is more stringent for bacteria than for fungi. […]
For bacteria challenge testing, a composition was scored as “Pass” if the composition obtained a growth rating score caused by bacteria of 1 or less at days 21-28 of the testing period and was scored as “Fail” if the composition obtained a growth rating score caused by bacteria of 2 or more at days 21-28 of the testing period. […]

N=C(NCCCCCCNC(=N)NC(=N)Nc1ccc(Cl)cc1)NC(=N)Nc1ccc(Cl)cc1.O=C(O)[C@H](O)[C@@H](O)[C@H](O)[C@H](O)CO.O=C(O)[C@H](O)[C@@H](O)[C@H](O)[C@H](O)CO [CHD.G, Chlorhexidine digluconate]
challenge test outcome (in words): none of the lotion formulations passed the challenge test

CCCCCCCC(=O)OCC(O)CO (centres unmarked) [GC, Glyceryl caprylate]
challenge test outcome (in words): none of the lotion formulations passed the challenge test

CCCCCCCCCCCC(=O)N[C@@H](CCCN=C(N)N)C(=O)OCC.Cl [LAE, Ethyl lauroyl arginate HCl]
challenge test outcome (in words): none of the lotion formulations passed the challenge test

O=C(O)c1ccccc1 [NaBz, Sodium benzoate]
challenge test outcome (in words): none of the lotion formulations passed the challenge test

CC(=O)c1ccc(O)cc1 [HAP, 4-Hydroxyacetophenone]
challenge test outcome (in words): none of the lotion formulations passed the challenge test
